{"source": "paper doi:10.1101/2024.03.08.584095v1", "about": "“LPOR and the membranes – evolutionary pathway towards prolamellar body formation” (biorxiv, 2024)", "key": {"AtPORB_α10": {"tested_on": "T1, AtPORB_α10", "T1 construct": "gene PORB; AtPORB with helix alpha10 of SynPOR; pET15b, E. coli", "assay": "[…] K fluorescence, Chlide/Pchlide ratio after […] s illumination, modified Michaelis-Menten fit", "type": "biochemical, Arabidopsis thaliana", "conditions": "5 µM Pchlide, 15 µM enzyme, no lipids, pH 7.1, room temperature; apparent analogue of Km"}, "AtPORB": {"biological_target": "T2, AtPORB (Arabidopsis thaliana, UniProt P21218)", "T2 construct": "gene PORB; cloned in a previous study", "T2 sequence (P21218 67-401)": "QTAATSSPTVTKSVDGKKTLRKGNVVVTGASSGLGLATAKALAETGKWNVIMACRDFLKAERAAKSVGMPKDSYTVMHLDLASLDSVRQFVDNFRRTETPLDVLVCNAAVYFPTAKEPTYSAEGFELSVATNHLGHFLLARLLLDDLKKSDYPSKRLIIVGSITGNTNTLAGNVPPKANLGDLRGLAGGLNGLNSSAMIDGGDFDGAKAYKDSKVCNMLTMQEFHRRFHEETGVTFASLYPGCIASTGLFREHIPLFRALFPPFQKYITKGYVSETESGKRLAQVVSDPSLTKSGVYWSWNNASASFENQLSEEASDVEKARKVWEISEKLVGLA", "assay": "[…] K fluorescence emission shift of Pchlide", "type": "binding", "conditions": "5 µM Pchlide, 15 µM enzyme, 200 µM NADP+, 100 µM OPT lipids, pH 7.1; inactive complex"}, "SynPOR": {"biological_target": "T3, SynPOR (Synechocystis sp. PCC 6803, UniProt Q59987)", "T3 construct": "gene por; recombinant, E. coli BL21(DE3)pRIL, cloned in a previous study; tag not described here", "T3 sequence (Q59987 whole entry)": "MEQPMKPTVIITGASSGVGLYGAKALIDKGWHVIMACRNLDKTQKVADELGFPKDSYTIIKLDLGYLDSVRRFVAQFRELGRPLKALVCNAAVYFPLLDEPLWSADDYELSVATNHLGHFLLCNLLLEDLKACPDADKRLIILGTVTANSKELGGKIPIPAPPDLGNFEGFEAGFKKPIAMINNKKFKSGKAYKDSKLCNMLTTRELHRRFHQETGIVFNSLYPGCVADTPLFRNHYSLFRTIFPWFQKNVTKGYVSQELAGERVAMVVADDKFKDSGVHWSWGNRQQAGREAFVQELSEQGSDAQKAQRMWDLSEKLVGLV", "assay": "[…] K fluorescence emission shift of Pchlide", "type": "binding", "conditions": "5 µM Pchlide, 15 µM enzyme, 200 µM dinucleotide, no lipids, pH 7.1"}}}
{"smiles": "NC(=O)C1=CN([C@@H]2O[C@H](COP(=O)(O)OP(=O)(O)OC[C@H]3O[C@@H](n4cnc5c(N)ncnc54)[C@H](OP(=O)(O)O)[C@@H]3O)[C@@H](O)[C@H]2O)C=CC1", "note": "[NADPH]", "values": [{"measurement": "Km", "setting": "AtPORB_α10", "result": "22.6 ± 3.3", "unit": "µM"}]}
{"smiles": "NC(=O)c1ccc[n+]([C@@H]2O[C@H](COP(=O)(O)OP(=O)(O)OC[C@H]3O[C@@H](n4cnc5c(N)ncnc54)[C@H](OP(=O)(O)O)[C@@H]3O)[C@@H](O)[C@H]2O)c1", "note": "[NADP+]", "values": [{"measurement": "77 K fluorescence emission shift of Pchlide", "setting": "AtPORB", "result": "AtPORB:Pchlide can bind NADP^+ in the presence of OPT lipids"}, {"measurement": "77 K fluorescence emission shift of Pchlide", "setting": "SynPOR", "result": "Introduction of NADP^+ into the lipid-free mixture induced further red shift"}]}
